Data as given in patent US11584727B2, “2-thioxothiazolidin-4-one derivatives active as transthyretin ligands and uses thereof” (BSIM Therapeutics, S.A., priority 2014, dated 2023).
Read-outs that look alike come from different tables or passages of the source.

How the values were obtained:
[1] = target: T1, wild type transthyretin (WT-TTR) (Homo sapiens, UniProt P02766); assay: WT-TTR amyloid fibril formation assay (turbidimetry, acid-induced); format: biochemical; settings: pH 4.4, 72 hours; for Fibril Formation (%): WT-TTR 3.6 μM, 1:1 TTR-compound stoichiometry, 37° C., normalized to no-compound control (100%); for IC50: WT-TTR fixed at 3.6 μM, ten compound concentrations; for inhibitory activity against TTR amyloid fibril formation compared with reference compounds (in words): TTR 3.6 μM
T1 construct: made in house; host or cells: E. coli BL21 (DE3), pET23a plasmid
Experimental: (§1) The first set of evaluations is based on a fast, stagnant fibril formation assay that is used for the early screening of compounds, be they virtual screening hits or newly synthesized analogues. In this assay, a solution of the compound under test at 1.8, 3.6 or 7.2 μM is added to a solution of TTR at 3.6 μM, so that there is enough compound to bind to either one or both of TTR's binding sites. The pH of the resulting solution is then lowered to 4.4 to promote amyloidogenesis. The process of amyloid fibril formation over time is assessed by turbidimetry measurements at three different wavelengths (405, 450 and 490 nm, or at 550, 600 and 650 nm when the compound absorbs light at the previous wavelengths), using a spectrophotometer endowed with a BioTek microplate reader. The extent of fibril formation of each mixture is determined by normalizing a sample with the protein (TTR), in absence of compounds, which, at the end of 72 hours, represents 100% of amyloid fibril formation. In each experiment, each compound concentration is tested in triplicate. For each compound concentration and incubation time, the arithmetic mean of the triplicate experiments is calculated, as well as the arithmetic mean of the three measured wavelengths. High activity can be defined as a percentage of fibril formation below 10% at compound concentration 7.2 μM (TTR:compound stoichiometry 1:2) and below 40% at 3.6 μM (TTR:compound stoichiometry 1:1).
The in vitro activity of the compounds was assessed through a biochemical assay based on turbidimetry measurements, in which fibril formation is induced by acidification of the solution to pH 4.4 after incubation with the hit compound to be tested. The amount of amyloid fibrils formed is then monitored throughout 72 hours. Further details on this assay are provided in the “Evaluation of amyloid inhibition in vitro” subsection in “Materials and Methods”.
Experimental evaluation of the in vitro activity of virtual screening hits against amyloid fibril formation by TTR was carried out using a biochemical assay based on turbidimetry measurements. In this assay, fibril formation is induced by acidification of the solution to pH 4.4 after incubation with the hit compound to be tested. The amount of amyloid fibrils formed is monitored over 72 hours. Further details on the assay are provided in the “Evaluation of amyloid inhibition in vitro” subsection below.
(§2) Purchased virtual screening hits and all synthesized (optimization) derivatives were dissolved in DMSO to a final concentration of 10.8 mM to provide a primary stock solution. Several secondary stock solutions were prepared in DMSO by dilution of the primary stock solution and the concentrations were chosen depending on the effectiveness of the compound in inhibiting the TTR amyloid fibril formation.
(§3) The fibril formation assay was adapted to run in a high-throughput screening mode. For this purpose, 96-well microplates were used with a final assay volume of 100 μL.
(§4) One microLitre (μL) of different compound secondary stock solutions was added to 50 μL of a 7.2 μM wild type TTR (WT-TTR) or Val122Ile-TTR (V122I-TTR) solutions in 10 miliMolar (mM) sodium phosphate buffer, 100 mM KCl and 1 mM EDTA, pH 7.2, previously dialyzed against the same buffer solution. After 30 minutes of incubation at room temperature, the pH of the mixture was lowered to 4.4 with 49 μL of 200 mM acetate buffer, 100 mM KCl and 1 mM EDTA, pH 4.3.
(§5) The mixtures were incubated at 37° C. during 72 hours. Turbidity at 405 nm, 450 nm and 490 nm (or at 550, 600 and 650 nm when the test compound absorbs light at the previous wavelengths) was measured over time (0, 17, 24, 41, 48, 65 and 72 hours) using a BioTek Microplate Spectrophotometer to evaluate the extent of fibril formation. Immediately before the turbidity measurements, the mixtures were gently shacked during 1 minute to homogenize well and not damage the formed amyloid aggregates and fibrils.

[2] = target: Val122Ile transthyretin (V122I-TTR) (Homo sapiens, UniProt P02766, V142I); assay: V122I-TTR amyloid fibril formation assay (turbidimetry, acid-induced); format: biochemical; settings: pH 4.4, 72 hours; for Fibril Formation (%): V122I-TTR 3.6 μM, 37° C.; for IC50: V122I-TTR fixed at 3.6 μM, ten compound concentrations
Experimental: as §1, §2, §3, §4
as §5, with “fibrils. The final turbidity was calculated as an average of the three wavelengths measured.” for “fibrils.”
In addition, control samples containing TTR with no inhibitor and 1% DMSO, as well as inhibitor in absence of TTR were tested and analyzed.
The extent of amyloid fibril formation data was normalized to TTR in the absence of inhibitor, assigned to be 100% fibril formation (or 0% amyloid inhibition) at the end of the experiment.
The extent of amyloid fibril formation throughout 72 hours was determined as described in the “Evaluation of amyloid inhibition in vitro” subsection above.
IC50 values were calculated from the inhibition curves obtained by fitting the values by a nonlinear curve method using the OriginPro7 (OriginLab Corporation, USA).

[3] = read-out: IC50 (μM), concentration inhibiting WT-TTR amyloid fibril formation by 50%

Compound | Fibril Formation (%) [1] [%] | Fibril Formation (%) [2] [%] | IC50 [1, 3] [µM] | IC50 [2] [µM] | IC50 [1] [µM] | melting point [°C] | inhibitory activity against TTR amyloid fibril formation compared with reference compounds (in words) [1] | IC50 ([2]; read-out: IC50 (μM), concentration inhibiting V122I-TTR amyloid fibril formation by 50%) [µM]
NC(Cc1cc(I)c(Oc2cc(I)c(O)c(I)c2)c(I)c1)C(=O)O (stereo in doubt) [Thyroxine, (2S)-2-amino-3-[4-(4-hydroxy-3,5-diiodophenoxy)-3,5-diiodophenyl]propanoic acid, reference compound] | 28 | 42 |  |  |  |  |  | 
Oc1c(Cl)cc(-c2cc(Cl)c(O)c(Cl)c2)cc1Cl [2OH- PCB80, 2,6-dichloro-4-(3,5-dichloro-4-oxidophenyl)benzen-1-olate, reference compound] | 20 | 24 | 1.59 ± 0.27 | 1.45 |  |  |  | 
COc1cc(/C=C2/SC(=S)N(CC(=O)O)C2=O)cc(Cl)c1O [AT50-A00 (E), (E)-3-hydroxycarbonylmethyl-5-(3′-chloro-4′-hydroxy-5′-methoxyphenylmethylidene)-2-thioxothiazolidin-4-one] | 26 | 45 |  | 3.06 | 1.73 ± 0.06 |  |  | 
O=C(O)CN1C(=O)/C(=C/c2cc(O)c(O)c(Cl)c2)SC1=S [AT50-A01, (Z)-5-(3′-chloro-4′,5′-dihydroxyphenylmethylidene)-3-hydroxycarbonylmethyl-2-thioxothiazolidin-4-one] | 12 | 29 |  | 2.34 | 1.45 ± 0.04 | 241 to 242 |  | 
O=C(O)CN1C(=O)/C(=C/c2ccc(O)cc2)SC1=S [AT50-A11, (Z)-3-hydroxycarbonylmethyl-5-(4′-hydroxyphenylmethylidene)-2-thioxothiazolidin-4-one] | 35 |  |  |  |  | 213 to 214 |  | 
Cc1cc(/C=C2\SC(=S)N(CC(=O)O)C2=O)cc(O)c1O [AT50-A35, (Z)-5-(3′,4′-dihydroxy-5′-methylphenylmethylidene)-3-hydroxycarbonylmethyl-2-thioxothiazolidin-4-one] | 21 |  |  |  | 2.23 | 238 to 239 |  | 
COc1cc(/C=C2\SC(=S)N(CC(=O)O)C2=O)cc(C)c1O [AT50-A47, (Z)-3-hydroxycarbonylmethyl-5-(4′-hydroxy-3′-methoxy-5′-methylphenylmethylidene)-2-thioxothiazolidin-4-one] | 21 |  |  |  | 2.05 | 238 to 239 |  | 
O=C(O)CN1C(=O)/C(=C/c2cc(Br)c(O)c(Br)c2)SC1=S [AT50-A50, (Z)-5-(3′,5′-dibromo-4′-hydroxyphenylmethylidene)-3-hydroxycarbonylmethyl-2-thioxothiazolidin-4-one] | 8 |  |  |  | 0.9 |  |  | 
COc1cccc(/C=C2\SC(=S)N(C(C)C(=O)O)C2=O)c1 (centres unmarked) [AT50-B00, (Z)-3-(1′-hydroxycarbonylethyl)-5-(3′-methoxyphenylmethylidene)-2-thioxothiazolidin-4-one] | 35 |  |  |  | 2.38 ± 0.17 |  | superior to that of reference compounds Tafamidis | 
COc1cc(/C=C2\SC(=S)N([C@H](CC(C)C)C(=O)O)C2=O)cc(OC)c1O [AT50-B01, (Z)-(1′S)-5-(4′-hydroxy-3′,5′-dimethoxyphenylmethylidene)-3-(1′-hydroxycarbonylisopentyl)-2-thioxothiazolidin-4-one] | 10 | 20 |  | 1.48 | 0.95 ± 0.45 |  |  | 
O=C(O)CC[C@@H](C(=O)O)N1C(=O)/C(=C/c2c(Cl)cccc2Cl)SC1=S [AT50-C00, (Z)-(1′S)-5-(2′,6′-dichlorophenylmethylidene)-3-(1′,3′-di(hydroxycarbonyl)propyl)-2-thioxothiazolidin-4-one] | 26 |  |  |  | 2.05 ± 0.04 |  | superior to that of reference compounds Tafamidis | 
O=C(O)CC[C@@H](C(=O)O)N1C(=O)/C(=C/c2ccc(O)c(Br)c2)SC1=S [AT50-C01, (Z)-(1′S)-5-(3′-bromo-4′-hydroxyphenylmethylidene)-3-(1′,3′-di(hydroxycarbonyl)propyl)-2-thioxothiazolidin-4-one] | 13 | 39 |  | 2.66 | 1.38 ± 0.3 |  |  | 
Cc1cc(/C=C2\SC(=S)N([C@@H](CCC(=O)O)C(=O)O)C2=O)cc(Cl)c1O [AT50-C02, (Z)-(1′S)-5-(3′-chloro-4′-hydroxy-5′-methylphenylmethylidene)-3-(1′,3′-di(hydroxycarbonyl)propyl)-2-thioxothiazolidin-4-one] | 18 |  |  |  | 1.79 ± 0.13 |  |  | 
COc1cc(/C=C2\SC(=S)N(CCC(=O)O)C2=O)cc(C)c1O [AT50-C18, (Z)-5-(4′-hydroxy-3′-methoxy-5′-methylphenylmethylidene)-3-(2′-hydroxycarbonylethyl)-2-thioxothiazolidin-4-one] | 30 |  |  |  |  | 194 to 196 |  | 
O=C(O)CCN1C(=O)/C(=C/c2cc(O)c(O)c(Cl)c2)SC1=S [AT50-C19, (Z)-5-(3′-chloro-4′,5′-dihydroxyphenylmethylidene)-3-(2′-hydroxycarbonylethyl)-2-thioxothiazolidin-4-one] | 33 |  |  |  |  | 243 to 245 |  | 
Cc1cc(/C=C2\SC(=S)N(CCC(=O)O)C2=O)cc(O)c1O [AT50-C20, (Z)-5-(3′,4′-dihydroxy-5′-methylphenylmethylidene)-3-(2′-hydroxycarbonylethyl)-2-thioxothiazolidin-4-one] | 39 |  |  |  |  | 221 to 222 |  | 
(Z)-5-(3′,5′-dichloro-4′-hydroxyphenylmethylidene)-3-hydroxycarbonylmethyl-2,4-dioxothiazolidine [AT50-A49] | 4 | 12 | 0.89 ± 0.15 |  |  |  |  | 1.32
(Z)-5-(3′-bromo-4′-hydroxy-5′-iodophenylmethylidene)-3-hydroxycarbonylmethyl-2,4-dioxothiazolidine [AT50-A51] | 5 |  | 1.07 ± 0.42 |  |  |  |  | 
